Results on one compound are retold here after patent US12391946B2, “Use of a Janus kinase inhibitor and a telomerase inhibitor for the treatment of myeloproliferative neoplasms” (priority 2019, dated 2025).

Holding throughout (assay type): cell-based, human
Assay [1] relates to MF splenic CD34+ cells. Put plainly: In vitro treatment of MF splenic CD34+ cells with various doses of Rux. To be noted: for IC50: Homo sapiens, concentration of Rux achieving 50% inhibition. Here is the method:
(§1) Treatment of MF and normal CD34^+ cells with doses of Rux and Imetelstat alone and in combination. […] For simultaneous combination treatment, CD34^+ cells were exposed to Rux and imetelstat for 3 days and were washed. Cells were then exposed to imetelstat again for additional 4 days or 11 days. For sequential combination treatment, CD34^+ cells were incubated in the presence of Rux alone for 3 days, followed by imetelstat alone for 7 or 14 days. For the three treatment strategies containing imetelstat, cells were dosed in total three times with imetelstat. Three days after Rux alone treatment and 7 or 14 days after each treatment with imetelstat, cells were enumerated and stained with CD34, a lineage cocktail, and CD15 mAbs and analyzed flow cytometrically. The absolute numbers of Lin^− CD34^+ (phenotypically defined HSC/HPC) and CD15^+CD34^− (myeloid) cells generated in the cultures were calculated by multiplying the total viable cell numbers by the percentage of CD34^+Lin^− and CD15^+CD34^− cells. In addition, parallel cultures to which MM or vehicle alone was added were performed.

For the next assay, the system named is CB CD34+ cells. Briefly: In vitro treatment of CB CD34+ cells with various doses of Rux. As to conditions: various doses of Rux (50-500 nM). Here is the method:
as §1

Assay [2] relates to MF splenic CD34+ cells. Briefly: In vitro treatment of MF splenic CD34+ cells with Rux and imetelstat alone and in combination (flow cytometry, HPC assays). As to conditions: Rux alone 50 nM 3 days. Here is the method: as §1, with “In addition, parallel cultures to which MM or vehicle alone was added were performed.” left out
HPC assays. A fraction of cells harvested from the above cultures were also analyzed in methylcellulose to which a cytokine cocktail was added according to the manufacturer's instructions (StemCell Technologies). […] Individual CFU-GM colonies (20-38 colonies/treatment group/patient) were plucked and analyzed for the presence of JAK2V617F using a nested allele-specific PCR. […]

Each structure is given as a SMILES string. Like-named read-outs stand apart in the source and are kept apart here.

Regarding `N#CC[C@H](C1CCCC1)n1cc(-c2ncnc3[nH]ccc23)cn1` [Rux, (3R)-3-Cyclopentyl-3-[4-(7H-pyrrolo[2,3-d]pyrimidin-4-yl)pyrazol-1-yl]propanenitrile], the IC50 in the assay with MF splenic CD34+ cells [1] (CD34+ cell, read-out: 50% inhibition of MF CD34+ cell proliferation) was found to be 150 nM; in the assay with MF splenic CD34+ cells [1] (CFU-GM, MF CD34+ cells, read-out: 50% inhibition of CFU-GM formation) it was 150 nM. In addition, in the assay on MF splenic CD34+ cells [1] (various doses of Rux (50-500 nM)), the “absolute number of MF splenic CD34+ cells” value is reported as “decreased in a dose dependent fashion”. Besides, in the assay on CB CD34+ cells, the “number of CB CD34+ cells” value is on record as “decreased only to a limited degree”. Besides, the “number of mature myeloid cells generated in cultures of splenic MF CD34+ cells” value in the assay on MF splenic CD34+ cells [2] (P=0.001) is “reduced”. Moreover, the “numbers of assayable HPCs (CFU-GM+BFU-E+CFU-GEMM) generated in cultures of splenic MF CD34+ cells” value with MF splenic CD34+ cells [2] (P=9.69E-06) is given as “reduced”.
